Here are results for nine molecules from PubChem BioAssay (NCI).

The structures appear in SMILES notation.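 Tested at 5 concentrations; 48 h exposure; 96-well plates; endpoints linearly interpolated, else capped at highest concentration. GI50: concentration for 50% inhibition of growth. The concentration for full growth arrest is given as TGI.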

Common to all, as to assay: NCI-60 cell line screen, 48 h
Assay [1] relates to DU-145 prostate.
Assay [2] deals with HCT-15 colon.
Assay [3] concerns BT-549 breast.
Assay [4] concerns SK-OV-3 ovarian.
The test system of assay [5] is OVCAR-3 ovarian.
Assay [6] concerns COLO 205 colon.
The test system of assay [7] is MDA-MB-435.
Assay [8] deals with CAKI-1 renal.
The test system of assay [9] is SW-620 colon.
Assay [10] relates to CCRF-CEM leukemia.

Take `COc1ccc2c3c(ccc2c1)NC(C(=O)O)CC3` (stereo unspecified): the TGI in assay [1], in assay [2], in assay [3], in [4], in [5] and in assay [6] was above 100 µM throughout. For the same molecule, the TGI in assay [7], in assay [8] and in assay [9] was above 100 µM in each case.
In the case of `CN(C)C(=O)C(NCCO)c1ccccc1` (stereo unspecified), the TGI in assay [1], in assay [2], in assay [3], in assay [4], in [5] and in [6] was above 100 µM throughout. The TGI in assay [7], in [8] and in assay [9] was above 100 µM each time.
`COc1ccc(-c2c(-c3cc4c(c(OC)c3OC)OCO4)noc2N)cc1`: the GI50 was 0.502 µM in [1]; 0.4 µM in assay [10]; 0.391 µM in assay [2]; 0.507 µM in [3]; 0.34 µM in [4]; 0.184 µM in assay [5]. For the same molecule, the GI50 is 0.277 µM in assay [6], 0.404 µM in assay [8] and 0.235 µM in [9]. For the same molecule, the TGI in assay [1] was above 100 µM; in assay [10] it was above 100 µM; in assay [2], above 100 µM; in [3] it was 17 µM; in assay [4], 14.3 µM; in assay [5] it was 0.812 µM. The TGI in assay [6] is 1.25 µM; in assay [8], above 100 µM; in [9], above 100 µM.
In the case of `CC(C)(C)n1nc(C2CC2)cc1NC(=O)Nc1ccc(Cl)cc1`, the TGI in assay [1], in assay [2], in [3], in [4], in [5] and in assay [6] was above 100 µM throughout. The TGI in assay [7], in assay [8] and in assay [9] was above 100 µM each time.
As for `Nc1nc2ccccc2c2[nH]c3ccccc3c12`, the GI50 was 1.94 µM in assay [1]; 0.671 µM in assay [2]; 1.26 µM in [3]; 4.91 µM in assay [4]; 1.42 µM in assay [5]; 1.07 µM in assay [6]. Also, the figures for the GI50 in assay [7] and in assay [9] were 0.938 µM and 0.384 µM, respectively. Besides, the TGI in assay [1] turned out to be 10.5 µM; in [2] it was 2.43 µM; in [3] it was 2.58 µM; in [4], 18.9 µM; in [5] it was 4.37 µM; in [6], 2.33 µM. For the same molecule, the TGI in assay [7] worked out at 3.16 µM; in [9], 1.96 µM.
As for `CC1=CC[C@@H]2[C@@H](CC[C@@]2(C)O)C(C)(C)[C@H]1CC[C@@H]1[C@@]2(C)CC[C@@H](O)C(C)(C)O[C@@H]2CC[C@]1(C)O`, the TGI in [1] was above 100 µM; in assay [2], 38 µM; in [3] it was 44 µM; in assay [4], above 100 µM; in assay [5] it was above 100 µM; in assay [6], 38.1 µM. The TGI in assay [7] is 57 µM; in [8], 54.2 µM; in [9] it was 85.7 µM.
With `Nc1ncnc2c1ncn2C1OC(CO)CC1O` (stereo unspecified), the TGI in assay [1] was above 100 µM; in assay [10], above 100 µM; in assay [2] it was 83.3 µM; in assay [3] it was 92 µM; in assay [4] it was above 100 µM; in [5], above 100 µM. Also, the TGI in [6], in assay [8] and in assay [9] was above 100 µM in each case.
Take `O=C1/C(=N/N=C(c2ccccc2)c2ccccc2)c2ccccc2-c2ccccc21`: the TGI in assay [1], in assay [2], in assay [3], in assay [4], in [5] and in assay [6] was above 100 µM throughout. Also, the TGI in assay [7], in assay [8] and in assay [9] was above 100 µM each time.
In the case of `C=C(c1ccc(OC)c(/C=C/C(=O)c2cc(OC)c(OC)c(OC)c2)c1)c1cc(OC)c(OC)c(OC)c1`, the GI50 is 1.32 µM in assay [1]; 0.359 µM in [10]; 0.552 µM in [2]; 0.894 µM in assay [3]; 3.6 µM in [4]; 1.53 µM in assay [5]. Moreover, the GI50 is 2.03 µM in assay [6], 1.28 µM in [8] and 0.6 µM in assay [9]. Moreover, the TGI was 3.11 µM in assay [1]; above 100 µM in assay [10]; 2.79 µM in assay [2]; 4.22 µM in assay [3]; above 100 µM in [4]; 3.18 µM in assay [5]. The TGI in assay [6] was 4.98 µM; in assay [8], 10.5 µM; in assay [9] it was 2.38 µM.
